# Values quoted from earlier work in patent US5939423A, “Treatment of hepatitis B infection with thymosin alpha 1 and famciclovir” (priority 1997, dated 1999).
# Ends that are not written are not given here.
# Legend:
# [1] = system: HBV
# [2] = system: T cells
# [3] = system: HBV; remark: listed apart in the source
# [4] = system: HBV; remark: listed apart in the source
# [5] = system: T4 (helper/inducer)cells; conditions: by activation of the T4 (helper/inducer) cells
# [6] = system: normal human lymphocytes
# [7] = system: HBV; conditions: 1.45 to 1.75 mg (adults) per twice-weekly injection
# [8] = system: anti-HBs; conditions: previously non-reactive hemodialysis patients
# [9] = in vivo
# [10] = system: woodchuck hepatitis virus (WHV)
# [11] = system: HBV infection; conditions: treatment of HBV infection
# [12] = system: HBV; conditions: in vivo
# [13] = more than 3000 patients
# [14] = system: HBV; conditions: preliminary data; up to 500 mg three times a day for 16 weeks
# [15] = system: duck hepatitis B virus; conditions: for maintenance of suppression of HBV DNA and DNA polymerase during treatment: 21 days of treatment; for maintenance of suppression of HBV DNA and DNA polymerase during treatment / DNA polymerase level / HBV DNA level: oral twice a day, penciclovir 20 and 100 mg/kg, famciclovir 5 and 25 mg/kg; for inhibition of duck hepatitis B viral replication: Peking duck; for HBV DNA and DNA polymerase levels after the post-dosing suppression: later than two days after dosing had stopped; for DNA polymerase level / HBV DNA level: within two days of start
# [16] = system: HBV; conditions: named patients
# [17] = single and repeat doses up to 1000 mg three times daily for six days
# [18] = system: HBV; conditions: 10 day course, 250 mg or 500 mg tid
# [19] = not given; remark: listed apart in the source
# [20] = system: HBV; remark: listed apart in the source
# [21] = system: zoster
# [22] = system: herpes simplex
# [23] = 12 patients received TF5 or Tα1, p<0.004 vs placebo, Fisher's exact test
# [24] = during the 1 yr study or post study follow up, p<0.11 vs placebo
# [25] = n = 49, 1.6 mg s.c. 2×/week, 6 months, p value 0.084 vs placebo
# [26] = n = 49, 1.6 mg s.c. 2×/week, 6 months, p value ns
compound,measurement,setting,value
interferon-alpha,clear HBeAg,[1]; Asian patients,15-20%
same,sustained clearance of hepatitis B e antigen (HBeAg),[1]; North America and European patients,30-40%
same,clear HBsAg,[1]; of the Asian patients who clear HBeAg,approximately 10%
same,ultimately cleared hepatitis B surface antigen (HBsAg),[1]; of the North America and European patients with HBeAg clearance,25-65%
"Tα1: 28 amino acid peptide with a molecular weight of 3108, initially isolated from Thymus Fraction 5, sequenced and chemically synthesized (SDAAVDTSSEITTKDLKEKKEVVEEAEN; ends and bridges not checked; UniProt P06454 2-29, looked up)",modulating the maturation of T cells,[2],activity similar to TF5
same,number of patients who cleared serum HBV DNA,[3]; [23],Nine
same,patients who cleared serum HBV DNA,[3]; [23],75%
same,"peripheral blood lymphocyte, CD3 and CD4 counts, and in vitro production of interferon-gamma","[3]; associated with response, over initial values",significant improvements
same,responders with sustained remission with normal ALT levels and negative serum HBV DNA (using PCR) and HBeAg,[3]; of the responders,About 78%
same,side effects,[3]; twice weekly for six months,No side effects were observed
same,serum aminotransferase levels,"[3]; twice weekly for six months, conclusion of the study (1 year)",improved significantly
same,sustained loss of HBV DNA with negative HBeAg,[4]; [24],25%
same,"sustained loss of HBV DNA with negative HBeAg, number of patients",[4]; [24],12
same,CR (%) (complete response),[4]; [25],14%
same,"CR (complete response), number of patients",[4]; [25],7
same,DR (%) (delayed response),[4]; [26],10%
same,"DR (delayed response), number of patients",[4]; [26],5
same,IR (%) (incomplete response),[4]; [26],0%
same,"IR (incomplete response), number of patients",[4]; [26],0
same,allogenic and autologous human mixed lymphocyte reactions,[5],enhances
same,lymphocyte IL2 receptor expression,[6],increase
same,"interferon-alpha, interferon-gamma, and IL2 and IL3 production",[6]; normal human lymphocytes,promote
same,safety and effectiveness in clearing HBV DNA from the blood,[7],safe and effective
same,in vivo production of anti-HBs following Heptavax-B vaccination,[8],enhance
same,local or systemic side effects,[9],no local or systemic side effects have been observed
same,change of WHV DNA replication intermediates from pretreatment levels,"[10]; liver biopsy, the other 2 animals, end of treatment",only a small change
same,treated animals with undetectable WHV DNA levels,"[10]; of 6 animals, 10 μg/Kg s.c. twice weekly, 28 weeks",4
same,depression of WHV DNA levels,"[10]; remaining 2 animals, 10 μg/Kg s.c. twice weekly, 28 weeks",100 fold
same,immune responsiveness,[11],enhances immune responsiveness
same,specific lymphocyte parameters,[11],augments specific lymphocyte parameters to significantly higher levels
Nc1ccn([C@@H]2CS[C@H](CO)O2)c(=O)n1 [lamivudine],safety profile,[12],good safety profile
same,suppressing HBV replication,[12],effective in suppressing HBV replication
"CC(=O)OCC(CCn1cnc2cnc(N)nc21)COC(C)=O [famciclovir, diacetylester of 6-deoxy penciclovir]",most common adverse experiences,[13],"headache, nausea and diarrhea"
same,reduction in HBV DNA and ALT levels,[14],significant reduction
same,absorption,"oral, volunteers",well absorbed
same,safety profile,[12],good safety profile
same,suppressing HBV replication,[12],effective in suppressing HBV replication
same,maintenance of suppression of HBV DNA and DNA polymerase during treatment,[15],maintained this suppression during the 21 days
same,inhibition of duck hepatitis B viral replication,[15],clearly inhibit
same,suppression of viral replication after dosing had stopped,[15],remained suppressed for at least two days
same,HBV DNA and DNA polymerase levels after the post-dosing suppression,[15],returned to pre-treatment levels
same,DNA polymerase level,[15],undetectable
same,HBV DNA level,[15],undetectable
same,efficacy in patients with HBV reinfection following liver transplantation,[16],shown efficacy
same,"drug-related adverse effects on clinical laboratory values, blood pressure, heart rates or ECG measurements",[17],no evidence of drug-related adverse effects
same,fall in HBV DNA levels,[18]; in 6 of 11 evaluable patients,greater than 90%
same,evaluable patients with greater than 90% fall in HBV DNA levels,[18]; of 11 evaluable patients,6
same,conversion to penciclovir,[19]; removal of one ester group,partly in the intestinal wall
same,completion of conversion to penciclovir,"[19]; removal of remaining ester group, oxidation at the 6-position",completed in the liver
Nc1nc2c(ncn2CCC(CO)CO)c(=O)[nH]1 [penciclovir],reduction in HBV DNA by 6 day,"[20]; 1 microgram/ml, by 6 day",50%
same,reduction in HBV DNA by day 9,"[20]; 1 microgram/ml, by day 9",90%
same,concentration dependence of HBV DNA reduction,[20]; 2.2.15 hepatoma cells,concentration dependent
same,inhibition of HBV in human cells,[20]; 2.2.15 hepatoma cells,potent inhibitor
same,Cmax (penciclovir),"oral penciclovir alone, 5 mg/kg dose",approximately 0.14 microgram/ml
same,efficacy against zoster virus,[21],proven efficacy
same,maintenance of suppression of HBV DNA and DNA polymerase during treatment,[15],maintained this suppression during the 21 days
same,inhibition of duck hepatitis B viral replication,[15],clearly inhibit
same,suppression of viral replication after dosing had stopped,[15],remained suppressed for at least two days
same,HBV DNA and DNA polymerase levels after the post-dosing suppression,[15],returned to pre-treatment levels
same,DNA polymerase level,[15],undetectable
same,HBV DNA level,[15],undetectable
same,efficacy against herpes simplex virus,[22],proven efficacy
